Calls of active or inactive are those of the source.
Key:
[1] = biological target: T1, Short transient receptor potential channel 4 (Mus musculus, UniProt Q9QUQ5); assay: calcium entry via TRPC4 opening agents – cell-based, HEK293 TRPC4/mu-opioid, Fluo-4 calcium, dose response (AID 434937); assay type: functional
T1 sequence (Q9QUQ5 whole entry): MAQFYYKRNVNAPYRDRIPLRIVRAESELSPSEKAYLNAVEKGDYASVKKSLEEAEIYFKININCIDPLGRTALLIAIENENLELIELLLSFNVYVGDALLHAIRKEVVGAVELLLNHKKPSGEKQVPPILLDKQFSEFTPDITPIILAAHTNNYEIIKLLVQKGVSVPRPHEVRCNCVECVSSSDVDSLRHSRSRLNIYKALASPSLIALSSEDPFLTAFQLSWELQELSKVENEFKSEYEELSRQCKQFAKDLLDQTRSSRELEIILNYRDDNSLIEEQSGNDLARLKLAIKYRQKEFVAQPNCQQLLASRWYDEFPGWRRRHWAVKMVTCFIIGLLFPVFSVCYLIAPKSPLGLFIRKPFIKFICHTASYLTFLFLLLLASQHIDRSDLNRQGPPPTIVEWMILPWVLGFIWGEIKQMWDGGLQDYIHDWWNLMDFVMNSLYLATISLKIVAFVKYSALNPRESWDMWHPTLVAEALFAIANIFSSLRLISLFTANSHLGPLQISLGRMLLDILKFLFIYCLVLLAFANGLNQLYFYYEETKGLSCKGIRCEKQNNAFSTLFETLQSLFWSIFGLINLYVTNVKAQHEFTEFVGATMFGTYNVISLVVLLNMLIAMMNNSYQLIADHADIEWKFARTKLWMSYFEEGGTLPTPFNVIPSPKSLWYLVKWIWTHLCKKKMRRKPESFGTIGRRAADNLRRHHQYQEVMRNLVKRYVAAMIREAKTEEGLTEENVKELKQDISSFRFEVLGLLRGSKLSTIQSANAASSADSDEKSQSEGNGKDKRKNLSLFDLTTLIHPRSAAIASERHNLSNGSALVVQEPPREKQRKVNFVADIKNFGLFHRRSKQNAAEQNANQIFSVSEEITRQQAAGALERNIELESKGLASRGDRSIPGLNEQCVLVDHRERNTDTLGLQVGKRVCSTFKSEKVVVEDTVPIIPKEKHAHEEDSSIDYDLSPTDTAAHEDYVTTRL

[2] = biological target: T2, DNA repair protein RAD52 homolog (Homo sapiens, UniProt P43351); assay type: functional, biochemical
T2 sequence (P43351 whole entry): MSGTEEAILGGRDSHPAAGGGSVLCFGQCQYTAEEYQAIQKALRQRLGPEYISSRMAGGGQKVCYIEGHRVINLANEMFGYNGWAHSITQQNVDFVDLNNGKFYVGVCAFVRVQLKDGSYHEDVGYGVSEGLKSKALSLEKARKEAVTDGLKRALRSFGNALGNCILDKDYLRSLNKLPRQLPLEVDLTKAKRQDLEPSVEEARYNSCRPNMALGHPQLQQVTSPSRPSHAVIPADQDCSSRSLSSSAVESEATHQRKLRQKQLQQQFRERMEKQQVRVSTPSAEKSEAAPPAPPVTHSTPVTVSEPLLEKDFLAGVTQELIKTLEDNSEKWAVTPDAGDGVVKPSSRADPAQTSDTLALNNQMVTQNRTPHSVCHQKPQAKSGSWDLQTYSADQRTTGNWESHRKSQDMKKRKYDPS

[3] = biological target: Delta-type opioid receptor (Homo sapiens, UniProt P41143); assay: Counterscreen for agonists of heterodimerization of the mu 1 (OPRM1) and delta 1 (OPRD1) opioid receptors: Luminescence-based cell-based high throughput dose response assay to identify agonists of OPRD1 homodimerization. [Related pubchem assays (depositor defined):AID504326, AID504355, AID504692, AID504904, AID504905]; assay type: functional
Chain of Delta-type opioid receptor (P41143 whole entry): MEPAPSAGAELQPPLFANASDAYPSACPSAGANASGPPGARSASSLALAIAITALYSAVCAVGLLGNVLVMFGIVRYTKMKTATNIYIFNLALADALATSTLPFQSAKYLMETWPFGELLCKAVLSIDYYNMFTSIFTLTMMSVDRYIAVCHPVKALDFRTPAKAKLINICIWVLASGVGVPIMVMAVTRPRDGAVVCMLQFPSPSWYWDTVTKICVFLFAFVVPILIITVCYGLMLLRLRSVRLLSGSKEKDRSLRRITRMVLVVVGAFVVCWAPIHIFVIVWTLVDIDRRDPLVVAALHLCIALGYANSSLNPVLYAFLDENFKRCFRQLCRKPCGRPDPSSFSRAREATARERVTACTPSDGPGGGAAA

[4] = biological target: Mu-type opioid receptor (Homo sapiens, UniProt P35372); assay: Counterscreen for agonists of heterodimerization of the mu 1 (OPRM1) and delta 1 (OPRD1) opioid receptors: Luminescence-based cell-based high throughput dose response assay to identify agonists of OPRM1 homodimerization.; assay type: functional;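 further: U2OS cells expressing OPRM1 and beta-arrestin as split beta-galactosidase partners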
Chain of Mu-type opioid receptor (P35372 whole entry): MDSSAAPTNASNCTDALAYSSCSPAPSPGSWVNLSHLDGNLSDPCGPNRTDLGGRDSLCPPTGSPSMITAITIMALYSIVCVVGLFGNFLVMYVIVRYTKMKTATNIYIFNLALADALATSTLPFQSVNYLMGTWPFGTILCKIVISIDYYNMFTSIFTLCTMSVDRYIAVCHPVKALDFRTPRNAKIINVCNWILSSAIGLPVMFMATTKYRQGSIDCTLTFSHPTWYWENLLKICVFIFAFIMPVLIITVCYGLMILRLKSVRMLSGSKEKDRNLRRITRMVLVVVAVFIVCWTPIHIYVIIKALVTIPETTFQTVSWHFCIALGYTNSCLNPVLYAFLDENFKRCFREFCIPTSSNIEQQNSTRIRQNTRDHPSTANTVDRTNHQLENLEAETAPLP

[5] = biological target: 5-hydroxytryptamine receptor 5A (Homo sapiens, UniProt P47898); assay: Counterscreen for agonists of OPRM1-OPRD1 heterodimerization: luminescence-based cell-based high throughput dose response assay to identify agonists of 5-hydroxytryptamine (serotonin) 5A receptor (HTR5A). [Related pubchem assays (depositor defined):AID504326, AID504355, AID504692, AID504904, AID504905]; assay type: functional
Chain of 5-hydroxytryptamine receptor 5A (P47898 whole entry): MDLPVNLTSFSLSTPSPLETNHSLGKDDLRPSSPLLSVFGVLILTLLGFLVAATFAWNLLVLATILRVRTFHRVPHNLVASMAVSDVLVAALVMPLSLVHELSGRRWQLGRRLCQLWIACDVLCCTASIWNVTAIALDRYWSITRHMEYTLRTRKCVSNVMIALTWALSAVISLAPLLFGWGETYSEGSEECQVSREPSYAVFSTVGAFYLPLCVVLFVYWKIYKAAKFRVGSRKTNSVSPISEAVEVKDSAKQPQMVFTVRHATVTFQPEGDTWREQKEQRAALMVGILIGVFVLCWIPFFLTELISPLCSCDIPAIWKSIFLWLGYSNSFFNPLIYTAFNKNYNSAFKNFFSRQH

[6] = biological target: Cytochrome P450 3A4 (Homo sapiens, UniProt P08684);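 further: CYP3A4 tested as one member of a cytochrome P450 panel screen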
Chain of Cytochrome P450 3A4 (P08684 whole entry): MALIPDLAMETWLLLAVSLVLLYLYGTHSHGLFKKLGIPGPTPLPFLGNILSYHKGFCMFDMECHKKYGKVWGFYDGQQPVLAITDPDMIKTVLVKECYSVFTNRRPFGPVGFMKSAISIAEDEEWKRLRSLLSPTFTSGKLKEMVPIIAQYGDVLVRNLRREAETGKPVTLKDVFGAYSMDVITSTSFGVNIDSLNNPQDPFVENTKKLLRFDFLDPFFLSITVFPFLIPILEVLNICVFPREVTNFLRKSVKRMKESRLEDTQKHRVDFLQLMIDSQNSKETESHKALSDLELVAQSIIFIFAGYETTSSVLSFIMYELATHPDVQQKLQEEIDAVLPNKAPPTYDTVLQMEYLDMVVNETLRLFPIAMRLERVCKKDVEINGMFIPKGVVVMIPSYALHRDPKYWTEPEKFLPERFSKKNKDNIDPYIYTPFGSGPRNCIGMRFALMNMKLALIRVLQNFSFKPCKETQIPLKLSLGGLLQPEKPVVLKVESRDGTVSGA

[7] = THP-1 cell cytotoxicity, dose response, cytotoxicity control for non-replicating M. tuberculosis project (AID 489025); assay type: functional
[8] = Luminescence Cell-Based Dose Retest to Confirm Inhibitors of Cancer Stem Cells. [Related pubchem assays (depositor defined):AID2717, AID2721]; assay type: functional; conditions: Homo sapiens
[9] = biological target: T3, Microphthalmia-associated transcription factor (Homo sapiens, UniProt O75030); assay: reducers of TRPM1 reporter luminescence, concentration series – cell-based, SK-MEL-5, cherry-picked, set 3, MITF inhibitor project, dose response (AID 493073); assay type: functional;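 further: SK-MEL-5 melanoma cells with luciferase driven by the MITF target TRPM1 promoter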
T3 sequence (O75030 whole entry): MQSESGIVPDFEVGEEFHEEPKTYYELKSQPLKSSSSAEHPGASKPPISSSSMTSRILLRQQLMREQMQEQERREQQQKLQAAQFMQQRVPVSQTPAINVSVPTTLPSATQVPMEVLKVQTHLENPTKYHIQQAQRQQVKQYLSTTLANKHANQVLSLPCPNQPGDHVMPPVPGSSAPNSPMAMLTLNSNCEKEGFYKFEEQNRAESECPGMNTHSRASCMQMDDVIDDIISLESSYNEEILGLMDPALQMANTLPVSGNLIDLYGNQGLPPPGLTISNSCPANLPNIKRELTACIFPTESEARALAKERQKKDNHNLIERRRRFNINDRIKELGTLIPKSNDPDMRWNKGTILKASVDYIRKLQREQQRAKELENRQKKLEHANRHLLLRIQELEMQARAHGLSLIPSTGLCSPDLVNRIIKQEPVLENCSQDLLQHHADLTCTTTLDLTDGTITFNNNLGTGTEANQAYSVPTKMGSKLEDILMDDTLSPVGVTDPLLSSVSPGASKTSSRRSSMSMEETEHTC

[10] = cells; assay type: functional
[11] = tested on: A-375; assay: MITF: Counter assay: A375 proliferation Measured in Cell-Based System Using Plate Reader - 2084-03_Inhibitor_Dose_DryPowder_Activity. [Related pubchem assays (depositor defined):AID488944]; assay type: functional; conditions: Homo sapiens
[12] = tested on: A-375; assay: proliferation inhibition in MITF-low A375 cells – cell-based, cherry-pick samples, set 2, counter-screen for MITF modulator project, dose response (AID 540335); assay type: functional; conditions: Homo sapiens
[13] = tested on: HEK293; assay: cells; conditions: Homo sapiens
[14] = tested on: HEK293; assay: cells; conditions: Homo sapiens; remark: listed apart in the source
[15] = tested on: Escherichia coli; assay: microbe, parasite or virus in culture
[16] = biological target: T4, Bcl-2-related protein A1 (Mus musculus, UniProt Q07440); assay type: functional;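 further: confirmatory dose–response counterscreen on Bfl-1, used to check hits from a UBC13 polyubiquitin inhibitor campaign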
T4 sequence (Q07440 whole entry): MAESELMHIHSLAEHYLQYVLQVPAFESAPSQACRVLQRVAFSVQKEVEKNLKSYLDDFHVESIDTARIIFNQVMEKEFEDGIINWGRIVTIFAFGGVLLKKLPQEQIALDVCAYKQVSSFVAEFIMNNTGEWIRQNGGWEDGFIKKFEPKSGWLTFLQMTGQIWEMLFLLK

[17] = biological target: T5, Ubiquitin-conjugating enzyme E2 N (Homo sapiens, UniProt P61088); assay type: functional
T5 sequence (P61088 whole entry): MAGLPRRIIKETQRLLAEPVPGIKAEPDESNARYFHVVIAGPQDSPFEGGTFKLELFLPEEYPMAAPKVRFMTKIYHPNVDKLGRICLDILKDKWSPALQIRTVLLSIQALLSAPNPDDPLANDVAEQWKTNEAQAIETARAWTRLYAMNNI

[18] = biological target: T5, Ubiquitin-conjugating enzyme E2 N; assay type: functional; remark: listed apart in the source

In the case of `CCN(c1ccccc1)S(=O)(=O)c1ccc(C(=O)N(CCCN(C)C)c2nc3cc4c(cc3s2)OCO4)cc1`, the EC50 [1] is reported as 5.31 µM (active) and the AC50 [2] is reported as 11.1 µM (active).
In the case of `CN(C)C(CNC(=O)c1cnc(Cl)c(Cl)c1)c1ccccc1` (centres undefined), the EC50 [1] is reported as 0.0173 µM (active), the EC50 [3] is reported as 1.07 µM (active) and the EC50 [4] is reported as 4.67 µM (active). The EC50 [5] was > 92.4 µM (inactive).
With `Cc1nc2c(c(-c3ccccc3)c1C#N)C(=O)c1ccccc1-2` the AC50 [6] was “inconclusive”.
In the case of `CC(C)c1ccc(N2C(=O)NC(=O)/C(=C/C=C/c3ccco3)C2=O)cc1`, the CC50 [7] is reported as 31.6 µM (active), the AC50 [8] is reported as 1.81 µM (active) and the AC50 [9] is reported as 5.89 µM (active). For the same compound, the IC50 [10] was 17.4 µM (active), the AC50 [11] was > 35 µM (active) and the AC50 [12] was > 35 µM (active). For the same compound, the EC50 [13] was > 59.6 µM (inactive) and the EC50 [14] was > 59.6 µM (inactive).
With `COCc1cc(O)nc2cc(NC(=O)C(F)(F)F)c(C)cc12` the AC50 [15] was 57.2 µM (active).
With `CCCCn1c(=O)c(C(=O)Nc2ccccc2S(N)(=O)=O)c(O)c2ccccc21` the IC50 [16] was 2.02 µM (active), the IC50 [17] was 15.5 µM (active) and the IC50 [18] was > 20 µM (inactive).

From ChEMBL document CHEMBL1201862, “PubChem BioAssay data set” (2004)
